Compound: NC(=O)CCCCC1CCSS1 [lipoamide]
Test: thermal stability z-score vs DMSO; higher = more thermally stabilized by treatment
Details: HeLa; lipoamide concentration 100 µM; arsenate co-treatment: none
Experimental: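 Cellular thermal proteome profiling in HeLa cells. Cells were treated with 100 µM lipoamide for 1 h, with or without 1 mM arsenate for a further 1 h, then heated to ten temperatures (37-66.3 °C), and soluble protein was quantified by TMT mass spectrometry relative to 0.1% DMSO controls. The thermal stability score (sum of log2 fold changes minus the abundance score) was transformed to a z-score; mean of n = 3 experiments.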
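Note: each temperature applied for 3 min, abundance score taken as mean log2 fold change at the two lowest temperatures, z-score obtained by mean subtraction and division by SD.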

Sequence of UniProt Q9Y624 (Q9Y624 whole entry, looked up, stated change not applied): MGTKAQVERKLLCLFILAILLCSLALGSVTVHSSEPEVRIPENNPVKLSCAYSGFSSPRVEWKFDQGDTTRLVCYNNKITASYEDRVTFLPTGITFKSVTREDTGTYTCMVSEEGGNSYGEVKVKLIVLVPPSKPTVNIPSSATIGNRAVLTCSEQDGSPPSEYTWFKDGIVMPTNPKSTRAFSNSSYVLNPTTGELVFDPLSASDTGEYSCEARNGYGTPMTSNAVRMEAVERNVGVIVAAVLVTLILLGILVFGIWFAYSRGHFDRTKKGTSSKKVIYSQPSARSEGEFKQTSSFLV
Sequence of UniProt Q9BSE5 (Q9BSE5 whole entry): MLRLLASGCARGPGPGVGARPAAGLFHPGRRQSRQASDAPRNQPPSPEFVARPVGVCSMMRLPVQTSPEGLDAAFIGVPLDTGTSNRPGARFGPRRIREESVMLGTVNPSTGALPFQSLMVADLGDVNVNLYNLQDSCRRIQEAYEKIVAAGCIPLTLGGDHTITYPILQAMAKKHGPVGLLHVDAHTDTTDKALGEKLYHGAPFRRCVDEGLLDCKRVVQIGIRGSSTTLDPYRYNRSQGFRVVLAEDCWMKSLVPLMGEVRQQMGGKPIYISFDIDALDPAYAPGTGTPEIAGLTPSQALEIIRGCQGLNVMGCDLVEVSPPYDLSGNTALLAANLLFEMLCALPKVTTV
Sequence of UniProt P61006 (P61006 whole entry): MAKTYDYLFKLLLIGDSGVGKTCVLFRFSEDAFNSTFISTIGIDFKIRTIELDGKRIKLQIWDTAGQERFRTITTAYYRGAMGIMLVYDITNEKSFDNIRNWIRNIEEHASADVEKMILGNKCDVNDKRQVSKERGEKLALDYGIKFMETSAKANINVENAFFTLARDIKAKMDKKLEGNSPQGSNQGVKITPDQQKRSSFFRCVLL

Going from MOB1B|MOB1A to SEC24B (UniProt O95487), the thermal stability z-score falls from 0.33 to -0.328.

Going from TDP1 (UniProt Q9NUW8) to TSTD2 (UniProt Q5T7W7), the thermal stability z-score falls from -0.0239 to -0.178.

Compared with PPID (UniProt Q08752), GRPEL1 (UniProt Q9HAV7) is higher in thermal stability z-score: -0.234 for the first, 0.246 for the second.

Going from FMR1 (UniProt Q06787) to DOCK7 (UniProt Q96N67), the thermal stability z-score falls from 0.195 to 0.0599.

First: EPB41L1 (UniProt Q9H4G0)
Second: COPA (UniProt P53621)
The thermal stability z-score of the first is lower: -0.127 for the first, 0.0865 for the second.

First: TRAPPC13 (UniProt A5PLN9)
Second: CTU2 (UniProt Q2VPK5)
The thermal stability z-score of the first is lower: -0.0347 for the first, 0.225 for the second.

Going from CPOX (UniProt P36551) to NFX1 (UniProt Q12986), the thermal stability z-score falls from -0.338 to -1.5.

First: FSTL3 (UniProt O95633)
Sequence of UniProt O95633 (O95633 whole entry): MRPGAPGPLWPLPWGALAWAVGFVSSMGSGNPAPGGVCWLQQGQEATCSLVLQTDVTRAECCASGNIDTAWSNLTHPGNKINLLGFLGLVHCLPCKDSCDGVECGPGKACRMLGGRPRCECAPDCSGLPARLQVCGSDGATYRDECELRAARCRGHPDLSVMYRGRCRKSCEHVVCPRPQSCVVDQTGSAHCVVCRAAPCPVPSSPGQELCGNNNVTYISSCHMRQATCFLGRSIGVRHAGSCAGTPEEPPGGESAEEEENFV
Second: EIF2B3 (UniProt Q9NR50)
Sequence of UniProt Q9NR50 (Q9NR50 whole entry): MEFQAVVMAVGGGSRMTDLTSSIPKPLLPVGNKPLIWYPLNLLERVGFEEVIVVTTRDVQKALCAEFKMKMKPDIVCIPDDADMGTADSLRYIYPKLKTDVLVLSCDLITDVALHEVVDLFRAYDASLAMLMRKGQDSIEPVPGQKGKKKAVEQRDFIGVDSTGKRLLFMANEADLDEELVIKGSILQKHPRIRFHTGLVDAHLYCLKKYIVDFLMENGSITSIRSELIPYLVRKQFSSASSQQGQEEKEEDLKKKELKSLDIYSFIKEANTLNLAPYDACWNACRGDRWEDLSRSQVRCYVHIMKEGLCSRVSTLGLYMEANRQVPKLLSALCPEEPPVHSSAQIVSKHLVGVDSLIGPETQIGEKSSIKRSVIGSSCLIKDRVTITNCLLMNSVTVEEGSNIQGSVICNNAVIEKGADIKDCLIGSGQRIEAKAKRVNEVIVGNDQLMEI
The thermal stability z-score of the first is lower: -2.34 for the first, 0.0579 for the second.

Compared with E2F4 (UniProt Q16254), CDK5RAP3 (UniProt Q96JB5) is lower in thermal stability z-score: 0.54 for the first, 0.162 for the second.

Compared with SIN3B (UniProt O75182), CTTNBP2NL (UniProt Q9P2B4) is higher in thermal stability z-score: 0.279 for the first, 1.54 for the second.

First: DCUN1D4 (UniProt Q92564)
Second: PPAN (UniProt Q9NQ55)
The thermal stability z-score of the first is higher: -0.0281 for the first, -0.582 for the second.

Compared with C1QTNF6 (UniProt Q9BXI9), CCDC102A (UniProt Q96A19) is lower in thermal stability z-score: 0.334 for the first, -0.283 for the second.

Going from RAB8A (UniProt P61006) to AGMAT (UniProt Q9BSE5), the thermal stability z-score rises from 0.344 to 0.565.

Compared with F11R (UniProt Q9Y624), SLC25A22 (UniProt Q9H936) is lower in thermal stability z-score: 0.653 for the first, 0.0868 for the second.

Going from CLP1 (UniProt Q92989) to LSM3 (UniProt P62310), the thermal stability z-score falls from -0.158 to -0.327.

First: NUP35 (UniProt Q8NFH5)
Second: AKT1S1 (UniProt Q96B36)
The thermal stability z-score of the first is lower: -0.376 for the first, -0.229 for the second.

First: MARCH5 (UniProt Q9NX47)
Second: SRPRA (UniProt P08240)
The thermal stability z-score of the first is higher: -0.0503 for the first, -0.208 for the second.

First: NOP9 (UniProt Q86U38)
Second: FAM160B1 (UniProt Q5W0V3)
Sequence of UniProt Q5W0V3 (Q5W0V3 whole entry): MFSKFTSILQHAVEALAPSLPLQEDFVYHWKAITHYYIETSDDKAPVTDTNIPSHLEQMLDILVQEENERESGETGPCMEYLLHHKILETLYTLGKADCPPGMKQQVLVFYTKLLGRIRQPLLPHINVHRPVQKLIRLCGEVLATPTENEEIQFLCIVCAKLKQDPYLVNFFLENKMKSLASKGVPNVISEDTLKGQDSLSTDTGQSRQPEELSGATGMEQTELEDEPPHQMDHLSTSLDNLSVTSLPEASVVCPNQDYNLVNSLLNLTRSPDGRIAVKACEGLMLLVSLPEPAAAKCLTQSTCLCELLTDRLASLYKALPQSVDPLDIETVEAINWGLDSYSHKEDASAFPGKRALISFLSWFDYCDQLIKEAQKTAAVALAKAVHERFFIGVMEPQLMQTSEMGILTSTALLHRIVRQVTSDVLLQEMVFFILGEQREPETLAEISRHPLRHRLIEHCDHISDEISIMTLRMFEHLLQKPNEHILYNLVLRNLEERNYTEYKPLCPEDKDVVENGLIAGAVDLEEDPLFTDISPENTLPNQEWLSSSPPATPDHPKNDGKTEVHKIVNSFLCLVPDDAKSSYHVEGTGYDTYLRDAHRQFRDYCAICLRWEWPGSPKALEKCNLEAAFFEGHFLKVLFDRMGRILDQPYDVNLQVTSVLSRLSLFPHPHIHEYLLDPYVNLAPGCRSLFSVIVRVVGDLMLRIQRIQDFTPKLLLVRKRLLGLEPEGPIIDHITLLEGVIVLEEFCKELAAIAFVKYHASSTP
The thermal stability z-score of the first is higher: 0.121 for the first, -0.179 for the second.

Compound: O=[As]([O-])(O)O.[K+] [potassium arsenate]
Test: as above
Details: HeLa; arsenate concentration 1 mM
Experimental: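 Cellular thermal proteome profiling in HeLa cells treated with 1 mM arsenate for 1 h (DMSO pretreatment), heated to ten temperatures (37-66.3 °C). Soluble protein was quantified by TMT mass spectrometry relative to DMSO controls; the thermal stability score was transformed to a z-score; mean of n = 3 experiments.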

Compared with BTBD10 (UniProt Q9BSF8), CHMP5 (UniProt Q9NZZ3) is lower in thermal stability z-score: -0.162 for the first, -0.246 for the second.

First: SLC39A6 (UniProt Q13433)
Second: ERC1 (UniProt Q8IUD2)
The thermal stability z-score of the first is higher: 0.868 for the first, 0.574 for the second.

Compared with CXXC1 (UniProt Q9P0U4), RFT1 (UniProt Q96AA3) is lower in thermal stability z-score: 0.00172 for the first, -0.609 for the second.

First: PAWR (UniProt Q96IZ0)
Second: TSEN54 (UniProt Q7Z6J9)
The thermal stability z-score of the first is lower: 0.349 for the first, 0.795 for the second.

First: RBM17 (UniProt Q96I25)
Second: C8ORF59 (UniProt Q8N0T1)
The thermal stability z-score of the first is higher: 0.243 for the first, -0.38 for the second.

Going from CAPZA2 (UniProt P47755) to CBX5 (UniProt P45973), the thermal stability z-score falls from 0.697 to -0.0201.

First: SAP30BP (UniProt Q9UHR5)
Second: TBC1D24 (UniProt Q9ULP9)
The thermal stability z-score of the first is higher: 1.03 for the first, 0.0941 for the second.

Going from HNRNPA2B1 (UniProt P22626) to PKD2 (UniProt Q13563), the thermal stability z-score rises from 0.0566 to 0.16.

Compared with UNK (UniProt Q9C0B0), CEP97 (UniProt Q8IW35) is lower in thermal stability z-score: -0.364 for the first, -0.411 for the second.

Going from BLVRB (UniProt P30043) to MFSD5 (UniProt Q6N075), the thermal stability z-score falls from 1.14 to 0.661.

First: CAPN1 (UniProt P07384)
Second: ANKRD54 (UniProt Q6NXT1)
The thermal stability z-score of the first is higher: -0.369 for the first, -0.49 for the second.

First: ENGASE (UniProt Q8NFI3)
Second: PRMT1 (UniProt Q99873)
The thermal stability z-score of the first is lower: -0.36 for the first, -0.12 for the second.

First: NBEAL1 (UniProt Q6ZS30)
Second: PSMD4 (UniProt P55036)
The thermal stability z-score of the first is lower: -0.119 for the first, 0.383 for the second.

First: GOPC (UniProt Q9HD26)
Second: KHDRBS1 (UniProt Q07666)
The thermal stability z-score of the first is higher: 0.591 for the first, -1.16 for the second.

Going from EPN1 (UniProt Q9Y6I3) to WIPI1 (UniProt Q5MNZ9), the thermal stability z-score falls from 0.491 to 0.18.

Compared with RNGTT (UniProt O60942), FAU (UniProt P62861) is higher in thermal stability z-score: -0.0249 for the first, 1.15 for the second.

Compared with DHTKD1 (UniProt Q96HY7), AGPAT3 (UniProt Q9NRZ7) is higher in thermal stability z-score: -0.558 for the first, -0.114 for the second.

First: RHOF (UniProt Q9HBH0)
Second: MOB1B|MOB1A
The thermal stability z-score of the first is lower: 0.478 for the first, 0.896 for the second.

First: SEC24B (UniProt O95487)
Sequence of UniProt O95487 (O95487 whole entry): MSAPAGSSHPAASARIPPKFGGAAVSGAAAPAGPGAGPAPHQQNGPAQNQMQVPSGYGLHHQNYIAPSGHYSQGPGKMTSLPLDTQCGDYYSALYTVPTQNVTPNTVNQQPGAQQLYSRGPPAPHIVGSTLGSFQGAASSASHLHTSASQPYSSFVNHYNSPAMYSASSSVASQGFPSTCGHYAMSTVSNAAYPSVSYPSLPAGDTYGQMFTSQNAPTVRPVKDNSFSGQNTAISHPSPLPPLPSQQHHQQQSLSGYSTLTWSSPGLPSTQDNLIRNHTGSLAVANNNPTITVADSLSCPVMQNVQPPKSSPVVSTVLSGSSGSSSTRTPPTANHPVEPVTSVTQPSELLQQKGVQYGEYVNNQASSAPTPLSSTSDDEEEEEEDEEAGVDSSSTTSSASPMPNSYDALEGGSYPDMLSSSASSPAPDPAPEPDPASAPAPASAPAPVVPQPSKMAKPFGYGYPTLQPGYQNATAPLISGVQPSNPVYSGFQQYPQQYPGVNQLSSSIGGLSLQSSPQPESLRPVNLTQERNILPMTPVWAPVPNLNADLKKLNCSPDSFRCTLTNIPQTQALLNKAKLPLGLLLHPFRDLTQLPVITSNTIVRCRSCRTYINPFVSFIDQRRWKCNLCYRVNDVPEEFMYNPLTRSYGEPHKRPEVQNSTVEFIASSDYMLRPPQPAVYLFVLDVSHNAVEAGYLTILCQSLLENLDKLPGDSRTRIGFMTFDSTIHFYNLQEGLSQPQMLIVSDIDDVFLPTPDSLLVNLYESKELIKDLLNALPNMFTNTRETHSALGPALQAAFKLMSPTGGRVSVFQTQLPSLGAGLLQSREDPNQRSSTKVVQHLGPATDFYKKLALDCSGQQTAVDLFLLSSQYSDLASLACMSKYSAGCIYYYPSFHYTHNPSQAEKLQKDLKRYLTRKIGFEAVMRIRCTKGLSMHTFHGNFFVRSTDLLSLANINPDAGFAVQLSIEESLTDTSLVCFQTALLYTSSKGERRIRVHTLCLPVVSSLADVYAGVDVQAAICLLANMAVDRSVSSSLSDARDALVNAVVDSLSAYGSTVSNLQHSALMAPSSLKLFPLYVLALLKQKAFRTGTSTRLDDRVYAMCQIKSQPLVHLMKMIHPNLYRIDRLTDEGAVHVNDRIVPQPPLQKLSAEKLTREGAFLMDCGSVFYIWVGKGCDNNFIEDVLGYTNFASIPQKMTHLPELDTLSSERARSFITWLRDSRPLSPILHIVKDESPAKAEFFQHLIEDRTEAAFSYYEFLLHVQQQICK
Second: TDP1 (UniProt Q9NUW8)
The thermal stability z-score of the first is higher: 0.116 for the first, -0.00328 for the second.

Going from TSTD2 (UniProt Q5T7W7) to PPID (UniProt Q08752), the thermal stability z-score rises from -0.0518 to 0.368.

Compared with GRPEL1 (UniProt Q9HAV7), FMR1 (UniProt Q06787) is higher in thermal stability z-score: -0.236 for the first, 0.0999 for the second.

Going from DOCK7 (UniProt Q96N67) to EPB41L1 (UniProt Q9H4G0), the thermal stability z-score falls from 0.962 to 0.139.

Compared with COPA (UniProt P53621), TRAPPC13 (UniProt A5PLN9) is lower in thermal stability z-score: 0.594 for the first, -0.371 for the second.

First: CTU2 (UniProt Q2VPK5)
Second: CPOX (UniProt P36551)
The thermal stability z-score of the first is higher: -0.165 for the first, -0.525 for the second.

First: NFX1 (UniProt Q12986)
Sequence of UniProt Q12986 (Q12986 whole entry): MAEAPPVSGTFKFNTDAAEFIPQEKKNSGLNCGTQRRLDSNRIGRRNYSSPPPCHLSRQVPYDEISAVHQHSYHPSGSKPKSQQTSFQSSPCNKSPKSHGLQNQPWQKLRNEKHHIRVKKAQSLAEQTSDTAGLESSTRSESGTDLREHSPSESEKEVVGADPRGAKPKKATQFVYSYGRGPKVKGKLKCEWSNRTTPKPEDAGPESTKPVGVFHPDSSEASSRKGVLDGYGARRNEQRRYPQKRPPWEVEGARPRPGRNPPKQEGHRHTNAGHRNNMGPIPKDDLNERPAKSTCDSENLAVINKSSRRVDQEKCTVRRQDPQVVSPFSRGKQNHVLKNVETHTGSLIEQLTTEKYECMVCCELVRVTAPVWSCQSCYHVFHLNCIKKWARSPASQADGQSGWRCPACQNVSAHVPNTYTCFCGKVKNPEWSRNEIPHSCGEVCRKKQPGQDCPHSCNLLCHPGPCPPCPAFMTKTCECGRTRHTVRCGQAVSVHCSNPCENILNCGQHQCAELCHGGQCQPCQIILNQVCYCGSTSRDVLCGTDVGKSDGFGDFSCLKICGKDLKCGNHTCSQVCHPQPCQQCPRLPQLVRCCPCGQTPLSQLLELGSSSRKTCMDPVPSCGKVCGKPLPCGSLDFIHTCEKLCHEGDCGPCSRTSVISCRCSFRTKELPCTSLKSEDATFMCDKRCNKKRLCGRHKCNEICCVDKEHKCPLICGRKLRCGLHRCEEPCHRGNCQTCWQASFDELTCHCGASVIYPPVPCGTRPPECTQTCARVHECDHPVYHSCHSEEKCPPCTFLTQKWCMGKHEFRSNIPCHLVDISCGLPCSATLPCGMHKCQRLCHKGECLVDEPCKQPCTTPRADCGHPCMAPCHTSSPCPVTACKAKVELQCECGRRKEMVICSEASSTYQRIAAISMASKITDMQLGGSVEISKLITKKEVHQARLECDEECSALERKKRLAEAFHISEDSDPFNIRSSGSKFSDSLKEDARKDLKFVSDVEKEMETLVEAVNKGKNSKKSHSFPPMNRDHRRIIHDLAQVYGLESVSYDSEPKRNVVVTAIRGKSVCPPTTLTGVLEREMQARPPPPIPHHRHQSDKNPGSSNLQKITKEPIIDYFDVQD
Second: FSTL3 (UniProt O95633)
The thermal stability z-score of the first is lower: -3.38 for the first, 0.0815 for the second.

First: EIF2B3 (UniProt Q9NR50)
Second: E2F4 (UniProt Q16254)
The thermal stability z-score of the first is higher: 0.582 for the first, 0.373 for the second.

First: CDK5RAP3 (UniProt Q96JB5)
Second: SIN3B (UniProt O75182)
The thermal stability z-score of the first is higher: 0.406 for the first, -0.327 for the second.

Compared with CTTNBP2NL (UniProt Q9P2B4), DCUN1D4 (UniProt Q92564) is lower in thermal stability z-score: 1.26 for the first, -0.0972 for the second.

Compared with PPAN (UniProt Q9NQ55), C1QTNF6 (UniProt Q9BXI9) is higher in thermal stability z-score: -0.33 for the first, 0.794 for the second.

Going from CCDC102A (UniProt Q96A19) to RAB8A (UniProt P61006), the thermal stability z-score rises from -0.327 to 0.332.

Compared with AGMAT (UniProt Q9BSE5), F11R (UniProt Q9Y624) is lower in thermal stability z-score: 0.92 for the first, 0.151 for the second.

Going from SLC25A22 (UniProt Q9H936) to CLP1 (UniProt Q92989), the thermal stability z-score rises from -0.472 to -0.0689.

First: LSM3 (UniProt P62310)
Second: NUP35 (UniProt Q8NFH5)
The thermal stability z-score of the first is lower: -0.624 for the first, 1.25 for the second.

First: AKT1S1 (UniProt Q96B36)
Second: MARCH5 (UniProt Q9NX47)
The thermal stability z-score of the first is lower: -0.504 for the first, 0.411 for the second.

Going from SRPRA (UniProt P08240) to NOP9 (UniProt Q86U38), the thermal stability z-score falls from 0.545 to -0.372.

In the case of FAM160B1 (UniProt Q5W0V3), the thermal stability z-score is reported as -1.49.

Reference: the supplement of paper PMC12463676, “Small-molecule dissolution of stress granules by redox modulation benefits ALS models” (Nature Chemical Biology, 2025)
